# Experimental data published in paper PMC8819291, “Adaptively evolved human oral actinomyces‐sourced defensins show therapeutic potential” (EMBO Molecular Medicine, 2021).
# “Also recorded” adds a separate entry of the source. Marks after values point to notes of the source that are not given here. Where a SMILES comes first, the peptide text is derived from it. Bridges are numbered along the chain shown (N, C = ends).
# Tests used:
# MRSA P1374 = test: Mouse peritonitis model; format: in vivo
# Procedure: ICR male mice (30 g each mouse; 6 weeks of age) were infected with 0.5 ml of bacterial suspension (1 × 10^8 CFU per mouse) via intraperitoneal injection (i.p.), a dose that achieved 100% mortality within 24 h after infection. […] Vehicle (0.9%) treated control group included 11 mice. Schematic representation is provided in Appendix Fig S16C.
# [1] = test system: penicillin‐sensitive Staphylococcus epidermidis P1111; test: Inhibition-zone assay (lethal concentration); format: cell-based; conditions: Broth Medium, 37°C
# Text: (§1) Bacterial media used here included: Luria‐Bertani (LB) medium, THY medium (30 g Todd Hewitt broth and 5 g Yeast extract per liter), and tryptic soy broth (TSB) (Oxoid, Basingstoke, UK); Broth medium and brain–heart infusion (BHI) medium (Beijing Landbridge technology Limited by Share Ltd., Beijing, China); Potato dextrose (PD) medium (self‐prepared).
# (§2) In brief, an overnight bacterial culture from a single colony was inoculated into fresh medium and grew to late log‐phase. A 10‐μl aliquot of each culture was diluted in 6‐ml pre‐heated medium containing 0.8% agar. The mixture was spread on a 9‐cm Petri dish, giving a depth of 1 mm. After settling, 3‐mm wells were punched in the plate and then 2‐μl peptide samples of different concentrations were added to each well. The agar plates were incubated overnight at indicated temperatures (Table EV4). A lethal concentration (C L ) was calculated from a plot of d^2 against log n, where d is the diameter (in cm) and n is the amount of sample applied in the well (in nmol). The plot is linear, and thus C L can be calculated from the slope (k) and the intercept (m) of this plot.
# [2] = test system: penicillin‐resistant Staphylococcus epidermidis P1389; test: Inhibition-zone assay (lethal concentration); format: cell-based; conditions: Broth Medium, 37°C
# Text: as §1, §2
# [3] = test system: Staphylococcus aureus J698; test: Inhibition-zone assay (lethal concentration); format: cell-based; conditions: Broth Medium, 37°C
# Text: as §1, §2
# [4] = test system: Staphylococcus aureus J700; test: Inhibition-zone assay (lethal concentration); format: cell-based; conditions: Broth Medium, 37°C
# Text: as §1, §2
# [5] = test system: Lysinibacillus fusiformis; test: Inhibition-zone assay (lethal concentration); format: cell-based; conditions: Broth Medium, 37°C
# Text: as §1, §2
# [6] = test system: Streptococcus mutans CGMCC 1.2499 (ATCC 25175); test: Inhibition-zone assay (lethal concentration); format: cell-based; conditions: Broth Medium, 37°C
# Text: as §1, §2
# [7] = test system: Staphylococcus aureus CGMCC 1.89; test: Inhibition-zone assay (lethal concentration); format: cell-based; conditions: Broth Medium, 37°C
# Text: as §1, §2
# [8] = test system: Streptococcus sanguinis CGMCC 1.2497 (ATCC 49295); test: Inhibition-zone assay (lethal concentration); format: cell-based; conditions: Broth Medium, 37°C
# Text: as §1, §2
# [9] = test system: Streptococcus pneumoniae R6; test: Inhibition-zone assay (lethal concentration); format: cell-based; conditions: THY, 5% CO2, 37°C
# Text: as §1, §2
# [10] = 10 μg i.p. once daily for 3 days, serum after 2 days, 1:100 diluted over AMSIN-immobilized CM5 chip
# Procedure: Firstly, three female ICR mice (25 g each mouse, 6 weeks of age) were injected intraperitoneally (i.p.) with 10‐μg protein dissolved in 0.9% NaCl once daily (OD) for 3 days. One female ICR mouse of 25 g (6 weeks of age) injected with 0.9% NaCl in the same manner was used as control. Blood samples were then collected from the mouse retro‐orbital plexus after 2 days. Sera were obtained by centrifugation and stored at –20°C until further use. […] In this process, bovine serum albumin (BSA) was added at a final concentration of 0.25 mg/ml to inhibit non‐specific binding. The amount of bound material, if any, was determined by measuring the increase in RUs.
# HNP1&2 = HNP1&2 (Homo sapiens, UniProt P59665); test: Bio-affinity ESI-MS for non-covalent complexes; format: binding; conditions: 52.5 μM AMSIN and 73.5 μM HNP1&2 in 25 mM NH4OAc (pH5.2)
# Procedure: (§3) All components for interactions were dissolved in 25 mM ammonium acetate (pH5.2). Electrospray spectra were recorded with Waters SynaptG2‐Si mass spectrometer (Waters, Manchester, UK) and measurements were performed with positive ESI in resolution mode. Ions were scanned in a mass range of 500–2,000 m/z with the following conditions: the capillary voltage at 1,500 V; the cone voltage at 40 V; the source block temperature at 30°C. Spectra were recorded and processed by the software Masslynx4.1 (Waters, Manchester, UK).
# hLZc (lysozyme C) = target: T1, hLZc (lysozyme C) (Homo sapiens, UniProt P61626); test: Bio-affinity ESI-MS for non-covalent complexes; format: binding; conditions: 52.5 μM AMSIN and 50 μM hLZc in 25 mM NH4OAc (pH5.2)
# T1 construct: lysozyme C) isolated from human saliva; from tissue; host or cells: human saliva
# Procedure: as §3
# SP D39 = test: Mouse lung infection model
# Procedure: To this end, ICR female mice (30 g each mouse; 9–10 weeks of age) were anesthetized with 1.25% 2,2,2‐Tribromoethanol (Avertin) (Macklin, Shanghai, China) and hung by their front teeth on a steel wire. Then, they were inoculated intranasally with 10–20 µl bacterial suspension of SP D39 of fresh overnight culture (1.5 × 10^6 CFU per mouse) and then were removed from the wire to their cages. A control group of untreated mice was included. […] Mice were treated with penicillin as a positive control. At 48 h post‐infection, the mice were sacrificed and lungs removed and homogenized in 0.9% saline. Colony counts from lung homogenates were determined and the total number of colonies/lungs per mouse was calculated. Schematic representation is provided in Appendix Fig S16B.
# [11] = test system: SSAN (Streptococcus sanguinis); test: Analysis of lysis in liquid culture; format: cell-based; conditions: culture at OD600 of 0.2, 5–10 μM AMSIN, 24 h
# [12] = 37°C
# SP R6 = test: RNA sequencing of the stimulon; format: cell-based, Streptococcus pneumoniae; conditions: sub‐lethal concentration, 10 min
# Procedure: Cells were harvested and washed with PBS buffer (pH 7.3) following further incubation for 10 min. Total RNA was isolated using the Bacteria Total RNA Isolation Kit (Sangon, China) according to the manufacturer’s instruction. RNA quality was assessed by NanoDrop and Agilent 2100 Bioanalyzer (Table EV6). After enrichment and fragment, mRNA was reverse transcribed into single‐strand DNA and then synthesized into double‐strand DNA. Following end‐filling, 5′‐phosphorylation, bubble adaptor ligation, and PCR amplification, a single‐strand circled DNA library was established for sequencing in BGISEQ‐500 sequencer (BGI, China) with a combinatorial probe‐anchor synthesis (cPAS) strategy.
# T1 sequence (P61626 19-148): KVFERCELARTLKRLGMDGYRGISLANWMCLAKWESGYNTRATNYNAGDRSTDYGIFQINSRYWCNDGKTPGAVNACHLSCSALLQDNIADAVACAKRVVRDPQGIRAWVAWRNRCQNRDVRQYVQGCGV
# Chain of HNP1&2 (P59665 66-94 limits assumed): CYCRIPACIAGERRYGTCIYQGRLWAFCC
compound,measurement,setting,value
"CC[C@H](C)[C@@H]1NC(=O)[C@H](CCCCN)NC(=O)CNC(=O)[C@H](CCCNC(=N)N)NC(=O)[C@@H]2CSSC[C@H](NC(=O)CNC(=O)[C@H](Cc3ccccc3)NC(=O)CN)C(=O)N3CCC[C@H]3C(=O)N[C@@H](Cc3c[nH]c4ccccc34)C(=O)N[C@@H](CC(N)=O)C(=O)N[C@@H](C)C(=O)N[C@@H](Cc3ccc(O)cc3)C(=O)N[C@@H](CCC(=O)O)C(=O)N[C@H]3CSSC[C@H](NC(=O)[C@H]([C@@H](C)O)NC(=O)[C@H](CCC(N)=O)NC(=O)[C@H](CCCNC(=N)N)NC1=O)C(=O)N[C@@H](Cc1c[nH]cn1)C(=O)N[C@H](C(=O)N[C@@H](Cc1ccc(O)cc1)C(=O)O)CSSC[C@H](NC(=O)[C@H](Cc1c[nH]cn1)NC(=O)[C@H](CCCNC(=N)N)NC(=O)[C@H](CC(=O)O)NC3=O)C(=O)N[C@@H](C(C)C)C(=O)N[C@@H](CO)C(=O)N[C@@H](CCCCN)C(=O)NCC(=O)N[C@@H](Cc1ccc(O)cc1)C(=O)N[C@@H]([C@@H](C)O)C(=O)NCC(=O)NCC(=O)N[C@@H](CC(N)=O)C(=O)N2 [AMSIN] (H-GFGCPWNAYECDRHCVSKGYTGGNCRGKIRQTCHCY-OH; disulfide 4-25, 11-33, 15-35; N-terminus and C-terminus assumed)",Survival after peritoneal infection with MRSA P1374,"MRSA P1374; 1 × 10^8 CFU i.p., AMSIN i.v. 1 h post‐infection 20 mg per kg, then 10 mg per kg once daily, six mice, 7‐day study period",all survived; also recorded: survived the 7‐day study period
same,Toxicity of administration route in the model,MRSA P1374; intravenous injection (i.v.),no obvious toxicity
same,Duration of continued survival,"MRSA P1374; same six treated mice, observation period",> 30 days
same,Lethal concentration (C L),[1],5.20 µM
same,Lethal concentration (C L),[2],1.14 µM
same,Lethal concentration (C L),[3],5.20 µM
same,Lethal concentration (C L),[4],5.20 µM
same,Lethal concentration (C L),[5],0.27 µM
same,Lethal concentration (C L),[6]; AMSIN alone,1.01 µM
same,Lethal concentration (C L),[6]; In combination with HNP1&2,0.38 ^a µM
same,Lethal concentration (C L),[6]; In combination with hLZc,0.56 ^b µM
same,Lethal concentration (C L),[7],5.20 µM
same,Lethal concentration (C L),[8],1.41 µM
same,Lethal concentration (C L),[9],0.14 µM
same,Anti-drug antibody in AMSIN-treated mouse serum,[10],no obvious anti‐drug antibody
same,Complex formation by ESI-MS,HNP1&2,no complex formation
same,Complex formation by ESI-MS,hLZc (lysozyme C),no complex formation
same,Log10 (CFU per lung),"SP D39; 8.35 mg/kg i.m. 24 h after intranasal SP D39, lungs at 48 h post‐infection, animal 1",3.3 Log10 (CFU per lung)
same,Log10 (CFU per lung),"SP D39; 8.35 mg/kg i.m., animal 2",3.48 Log10 (CFU per lung)
same,Log10 (CFU per lung),"SP D39; 8.35 mg/kg i.m., animal 3",3.3 Log10 (CFU per lung)
same,Log10 (CFU per lung),"SP D39; 8.35 mg/kg i.m., animal 4",3 Log10 (CFU per lung)
same,Log10 (CFU per lung),"SP D39; 8.35 mg/kg i.m., animal 5",3.78 Log10 (CFU per lung)
same,Log10 (CFU per lung),"SP D39; 16.7 mg/kg i.m., animal 1",3.89 Log10 (CFU per lung)
same,Log10 (CFU per lung),"SP D39; 16.7 mg/kg i.m., animal 2",1.48 Log10 (CFU per lung)
same,Log10 (CFU per lung),"SP D39; 16.7 mg/kg i.m., animal 3",1 Log10 (CFU per lung)
same,Log10 (CFU per lung),"SP D39; 16.7 mg/kg i.m., animal 4",4.2 Log10 (CFU per lung)
same,Log10 (CFU per lung),"SP D39; 16.7 mg/kg i.m., animal 5",1.6 Log10 (CFU per lung)
same,Log10 (CFU per lung),"SP D39; 33 mg/kg i.m., animal 1",1 Log10 (CFU per lung)
same,Log10 (CFU per lung),"SP D39; 33 mg/kg i.m., animal 2",1.3 Log10 (CFU per lung)
same,Log10 (CFU per lung),"SP D39; 33 mg/kg i.m., animal 3",1 Log10 (CFU per lung)
same,Log10 (CFU per lung),"SP D39; 33 mg/kg i.m., animal 4",1.3 Log10 (CFU per lung)
same,Log10 (CFU per lung),"SP D39; 33 mg/kg i.m., animal 5",1.48 Log10 (CFU per lung)
same,Reduction of CFU in lungs,"SP D39; different doses (8.35, 16.7, 33 mg per kg i.m.)",4.6–6.7 log10
same,Toxicity of administration route in the model,SP D39; intramuscular injection (i.m.),no obvious toxicity
same,Lysis of bacteria,[11],lytic effect
same,Residual antibacterial activity,[12]; 24 h in fresh normal mouse serum without dilution,full antibacterial activity
same,Activity in serum compared with in H2O,"[12]; undiluted mouse serum, 48‐h study period",slight decrease
same,Transcriptional profile compared with vancomycin,SP R6,partly overlapped
